Marks after values point to notes of the source that are not given here.
Tests used:
rats [1] = conditions: rat, cited from earlier work
[2] = sc administration; cited from earlier work
rats [3] = assay: Tail-flick test in the rat after sc administration; type: in vivo; conditions: pair 15 vs 16
human μ opioid receptor = human μ opioid receptor (Homo sapiens, UniProt P35372); type: biochemical
κ opioid receptor = conditions: third value of μ:δ:κ; cited from earlier work
μ opioid receptor = conditions: first value of μ:δ:κ; cited from earlier work
δ opioid receptor = conditions: second value of μ:δ:κ; cited from earlier work

Sequence of human μ opioid receptor (P35372 whole entry): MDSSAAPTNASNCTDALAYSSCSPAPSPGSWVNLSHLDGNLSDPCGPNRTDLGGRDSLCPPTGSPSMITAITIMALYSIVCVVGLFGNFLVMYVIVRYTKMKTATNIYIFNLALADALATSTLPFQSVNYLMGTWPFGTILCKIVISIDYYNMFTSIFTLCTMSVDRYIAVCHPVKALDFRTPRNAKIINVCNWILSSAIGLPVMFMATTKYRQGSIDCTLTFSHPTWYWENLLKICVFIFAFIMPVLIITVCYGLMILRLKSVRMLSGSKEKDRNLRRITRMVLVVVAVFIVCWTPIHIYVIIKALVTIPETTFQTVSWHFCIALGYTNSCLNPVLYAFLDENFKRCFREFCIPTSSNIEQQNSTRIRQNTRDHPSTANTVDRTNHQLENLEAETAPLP

Structure (SMILES) | ED50 (nmol/kg, sc), time after drug administration 0.5 h (rats [1]) | ED50 (nmol/kg, sc), time after drug administration 1 h (rats [1]) | ED50 (nmol/kg, sc), time after drug administration 2 h (rats [1]) | functional character at the μ receptor (human μ opioid receptor) | other results
CO[C@@]12CC[C@H](NCC(=O)O)[C@@H]3Oc4c(O)ccc5c4[C@@]31CCN(C)[C@@H]2C5 [Compound 9] | 137 nmol/kg | 58.5 ^c nmol/kg | 143 nmol/kg | – | ED50 (nmol/kg, sc), time after drug administration 3 h (rats [1]; 3 h): 437 nmol/kg
CO[C@@]12CC[C@@H](NCC(=O)O)[C@@H]3Oc4c(O)ccc5c4[C@@]31CCN(C)[C@@H]2C5 [Compound 10, 2-[(4,5α-Epoxy-3-hydroxy-14β-methoxy-17-methylmorphinan-6β-yl)amino] acetic Acid] | 50.8 nmol/kg | 29.0 ^c nmol/kg | 43.3 nmol/kg | – | antinociceptive potency lower than that of 14-O-methyloxymorphone (1) [2]: 2 fold
CC(C)(C)OC(=O)CN[C@@H]1CC[C@@]2(OCCCc3ccccc3)[C@H]3Cc4ccc(O)c5c4[C@@]2(CCN3CC2CC2)[C@H]1O5 [Compound 16] | – | – | – | – | difference in the potency between α and β epimers (rats [3]): 13 fold
Cl.Cl.O=C(O)CN[C@H]1CC[C@@]2(OCCCc3ccccc3)[C@H]3Cc4ccc(O)c5c4[C@@]2(CCN3CC2CC2)[C@H]1O5 [Compound 17, [[17-Cyclopropylmethyl-4,5α-epoxy-3-hydroxy-14β-[(3-phenylpropyl)oxy]morphinan-6α-yl]amino]acetic Acid Dihydrochloride] | – | – | – | highly potent partial agonists | –
Cl.Cl.O=C(O)CN[C@@H]1CC[C@@]2(OCCCc3ccccc3)[C@H]3Cc4ccc(O)c5c4[C@@]2(CCN3CC2CC2)[C@H]1O5 [Compound 18, [[17-Cyclopropylmethyl-4,5α-epoxy-3-hydroxy-14β-[(3-phenylpropyl)oxy]morphinan-6β-yl]amino]acetic Acid Dihydrochloride] | – | – | – | highly potent partial agonists | –
O=C1CC[C@@]2(O)[C@H]3Cc4ccc(O)c5c4[C@@]2(CCN3CC2CC2)[C@H]1O5 [naltrexone] | – | – | – | – | binding affinity κ (κ opioid receptor): 0.40; binding affinity μ (μ opioid receptor): 0.20; binding affinity δ (δ opioid receptor): 8.70

Reference: publication PMC3041239 (Journal of Medicinal Chemistry, 2011)
